Source: BindingDB's records for doi:10.1016/S0960-894X(96)00247-8 (1996)

Legend:
[1] = molecular target: Glutamate-cysteine ligase gshA (Escherichia coli) (UniProt P0A6W9); assay: Tested for inhibition of Escherichia coli gamma-glutamylcysteine synthetase at a concentration of 5.1 uM
[2] = molecular target: Glutamate-cysteine ligase gshA (Escherichia coli) (UniProt P0A6W9); assay: Tested for inhibition of Escherichia coli gamma-glutamylcysteine synthetase at a concentration of 5.7 uM

Glutamate-cysteine ligase gshA (Escherichia coli), sequence (P0A6W9 whole entry, looked up): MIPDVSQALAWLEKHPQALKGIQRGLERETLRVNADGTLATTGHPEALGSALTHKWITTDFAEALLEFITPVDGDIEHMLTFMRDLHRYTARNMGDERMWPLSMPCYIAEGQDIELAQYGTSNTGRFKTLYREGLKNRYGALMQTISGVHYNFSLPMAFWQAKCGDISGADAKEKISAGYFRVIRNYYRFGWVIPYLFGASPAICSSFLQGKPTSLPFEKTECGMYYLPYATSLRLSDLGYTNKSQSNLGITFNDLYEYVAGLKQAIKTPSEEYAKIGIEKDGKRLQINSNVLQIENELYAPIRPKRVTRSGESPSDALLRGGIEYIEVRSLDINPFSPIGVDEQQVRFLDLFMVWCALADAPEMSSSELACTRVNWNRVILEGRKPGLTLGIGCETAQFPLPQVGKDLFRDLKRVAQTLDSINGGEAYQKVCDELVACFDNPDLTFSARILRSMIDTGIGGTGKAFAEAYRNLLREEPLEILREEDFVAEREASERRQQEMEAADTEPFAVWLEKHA

CCCCS(=N)(=O)CCC(=N)C(=O)O (configuration not stated)
Ki [1]: 49.3 µM

CCC(CP(=O)(O)CC[C@H](N)C(=O)O)C(=O)O (stereo partly drawn) [(2S)-2-ammonio-4-[(2-carboxylatobutyl)phosphinato]butanoate]
Ki [2]: 4.95 µM
